Several values for one entry are separate records, joined by “and”; a condition that tells them apart may be missing. Equal entries are not always repeated.
Tests used:
[1] = Liquid; for mass density: 101.33 kPa
[2] = excess molar enthalpy (molar enthalpy of mixing); xn = mol fraction of the nth substance listed; conditions: 101 kPa, Liquid

OCCO [1,2-ethanediol]
Conditions	vapor or sublimation pressure
[1], 363.15 K	1.202 kPa and 1.28 kPa and 1.38 kPa

CC(=O)OCCO [2-hydroxyethyl acetate]
[1]
Conditions	mass density [kg/m3]	vapor or sublimation pressure
283.16 K	1118.6	–
288.14 K	1113.8	–
293.14 K	1108.9	–
298.14 K	1104.1	–
303.14 K	1099.2	–
308.14 K	1094.4	–
313.14 K	1089.5	–
318.14 K	1084.6	–
323.14 K	1079.7	–
328.14 K	1074.8	–
333.14 K	1069.9	–
338.14 K	1064.9	–
343.14 K	1059.9	–
363.15 K	–	2.228 kPa [middle of 4 runs]
374.42 K	–	3.79 kPa
403.66 K	–	13.81 kPa
417.65 K	–	23.64 kPa
427.41 K	–	33.46 kPa
434.9 K	–	43.3 kPa
440.57 K	–	53.13 kPa
444.25 K	–	62.95 kPa
448.78 K	–	72.79 kPa

CC(=O)OCCO [2-hydroxyethyl acetate] + CC(=O)O
[2], 323.15 K, Flow calorimetry
Conditions	excess molar enthalpy [kcal/mol]
x2 = 0.0798	-0.0241
x2 = 0.1906	-0.0502
x2 = 0.2919	-0.0636
x2 = 0.414	-0.0664
x2 = 0.5236	-0.0576
x2 = 0.6224	-0.0437
x2 = 0.7332	-0.0223
x2 = 0.8318	-0.00323
x2 = 0.9203	0.00684

CC(=O)OCCO [2-hydroxyethyl acetate] + CC(=O)OCCOC(C)=O
[2], 323.15 K, Flow calorimetry
Conditions	excess molar enthalpy [kcal/mol]
x1 = 0.103	0.0688
x1 = 0.231	0.13
x1 = 0.3777	0.163
x1 = 0.5367	0.167
x1 = 0.7024	0.142
x1 = 0.8299	0.098
x1 = 0.9272	0.0495

CC(=O)OCCO [2-hydroxyethyl acetate] + O
[2], 323.15 K, Flow calorimetry
Conditions	excess molar enthalpy [kcal/mol]
x2 = 0.1179	-0.192
x2 = 0.2578	-0.176
x2 = 0.3978	-0.117
x2 = 0.546	-0.0727
x2 = 0.6907	-0.0373
x2 = 0.825	-0.0169
x2 = 0.9399	-0.00478

CC(=O)OCCO [2-hydroxyethyl acetate] + OCCO
[2], 323.15 K, Flow calorimetry
Conditions	excess molar enthalpy [kcal/mol]
x1 = 0.0784	0.0435
x1 = 0.1656	0.0808
x1 = 0.2632	0.111
x1 = 0.3732	0.132
x1 = 0.4718	0.139
x1 = 0.5815	0.136
x1 = 0.7043	0.117
x1 = 0.8065	0.0894
x1 = 0.9188	0.043

CC(=O)O [acetic acid]
Conditions	vapor or sublimation pressure
[1], 363.15 K	39.68 kPa and 39.67 kPa and 39.66 kPa

CC(=O)O [acetic acid] + OCCO
excess molar enthalpy [kcal/mol], [2]
Conditions	298.15 K	323.15 K
x1 = 0.0489	0.00158	–
x1 = 0.049	–	0.00485
x1 = 0.098	0.000992	0.007
x1 = 0.1472	-0.000488	0.00631
x1 = 0.1964	-0.0027	–
x1 = 0.1965	–	0.00519
x1 = 0.2458	-0.00595	–
x1 = 0.2459	–	0.00304
x1 = 0.2953	-0.00837	–
x1 = 0.2954	–	0.00172
x1 = 0.3449	-0.011	–
x1 = 0.345	–	-0.000206
x1 = 0.3946	-0.0134	–
x1 = 0.3947	–	-0.00151
x1 = 0.4444	-0.0147	–
x1 = 0.4445	–	-0.00229
x1 = 0.4944	-0.0151	–
x1 = 0.4945	–	-0.00167
x1 = 0.5444	-0.0136	–
x1 = 0.5445	–	-0.000263
x1 = 0.5946	-0.0107	–
x1 = 0.5947	–	0.00282
x1 = 0.6449	-0.00621	–
x1 = 0.645	–	0.00734
x1 = 0.6953	0.00032	0.0126
x1 = 0.7458	0.00667	0.0189
x1 = 0.7964	0.0138	0.0244
x1 = 0.8471	0.0196	–
x1 = 0.8472	–	0.0289
x1 = 0.898	0.0224	0.0296
x1 = 0.9489	0.0184	0.0225

CC(=O)OCCOC(C)=O [ethylene diacetate]
Conditions	vapor or sublimation pressure
[1], 363.15 K	2.744 kPa [middle of 4 runs]

CC(=O)OCCOC(C)=O [ethylene diacetate] + CC(=O)O
[2], 323.15 K, Flow calorimetry
Conditions	excess molar enthalpy [kcal/mol]
x2 = 0.1086	0.0418
x2 = 0.2045	0.0657
x2 = 0.2899	0.0791
x2 = 0.3665	0.0863
x2 = 0.4354	0.0894
x2 = 0.4979	0.0894
x2 = 0.5547	0.0877
x2 = 0.6067	0.0834
x2 = 0.6544	0.0784
x2 = 0.6982	0.0736
x2 = 0.7388	0.0669
x2 = 0.7763	0.06
x2 = 0.8112	0.0526
x2 = 0.8437	0.0447
x2 = 0.8741	0.0375
x2 = 0.9025	0.0292
x2 = 0.9291	0.0218
x2 = 0.9542	0.014
x2 = 0.9778	0.00669

CC(=O)OCCOC(C)=O [ethylene diacetate] + O
[2], 323.15 K, Flow calorimetry
Conditions	excess molar enthalpy [kcal/mol]
x2 = 0.0844	0.15
x2 = 0.1574	0.24
x2 = 0.2211	0.299
x2 = 0.2771	0.331
x2 = 0.3713	0.36
x2 = 0.4473	0.361
x2 = 0.5624	0.304
x2 = 0.6455	0.245
x2 = 0.7342	0.182
x2 = 0.8138	0.125
x2 = 0.8793	0.0798
x2 = 0.9161	0.0535
x2 = 0.9444	0.0344
x2 = 0.9668	0.0189
x2 = 0.9808	0.00808

CC(=O)OCCOC(C)=O [ethylene diacetate] + OCCO
[2], 323.15 K, Flow calorimetry
Conditions	excess molar enthalpy [kcal/mol]
x1 = 0.0219	0.0483
x1 = 0.0451	0.0966
x1 = 0.0698	0.142
x1 = 0.096	0.19
x1 = 0.1241	0.232
x1 = 0.1541	0.268
x1 = 0.1862	0.302
x1 = 0.2208	0.332
x1 = 0.258	0.362
x1 = 0.2982	0.389
x1 = 0.3419	0.412
x1 = 0.3893	0.434
x1 = 0.4411	0.456
x1 = 0.4979	0.466
x1 = 0.5604	0.464
x1 = 0.6296	0.452
x1 = 0.7066	0.418
x1 = 0.7927	0.345
x1 = 0.8898	0.216

O [water]
Conditions	vapor or sublimation pressure
[1], 363.15 K	70.09 kPa and 69.93 kPa

Source: the NIST ThermoML archive (doi:10.1016/j.fluid.2007.05.030)
